From ChEMBL document CHEMBL5241054, “Effective anti-aromatase therapy to battle against estrogen-mediated breast cancer: Comparative SAR/QSAR assessment on steroidal aromatase inhibitors” (Eur J Med Chem, 2020) come the findings set out here.

The experiment concerns the target T1, Aromatase (Homo sapiens, UniProt P11511).
T1 sequence (P11511 whole entry): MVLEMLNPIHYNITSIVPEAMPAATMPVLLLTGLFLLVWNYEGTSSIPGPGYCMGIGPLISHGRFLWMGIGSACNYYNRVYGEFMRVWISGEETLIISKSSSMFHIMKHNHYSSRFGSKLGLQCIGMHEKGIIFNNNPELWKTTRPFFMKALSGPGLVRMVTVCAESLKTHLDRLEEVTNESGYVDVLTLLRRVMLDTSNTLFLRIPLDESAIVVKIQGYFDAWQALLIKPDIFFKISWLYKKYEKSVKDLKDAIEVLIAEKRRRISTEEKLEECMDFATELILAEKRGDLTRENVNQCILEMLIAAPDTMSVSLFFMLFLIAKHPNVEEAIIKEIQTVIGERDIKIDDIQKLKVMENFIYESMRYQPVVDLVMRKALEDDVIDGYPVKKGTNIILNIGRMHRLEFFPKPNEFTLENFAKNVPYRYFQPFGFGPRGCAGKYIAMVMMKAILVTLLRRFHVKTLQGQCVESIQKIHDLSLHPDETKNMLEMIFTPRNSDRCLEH
As a reminder, the IC50 is the concentration that inhibits the measured activity by half. Read a low IC50 as greater potency in that assay. Compound `COC1=C2C(=O)C[C@@H]3[C@H](CC[C@]4(C)C(=O)CC[C@@H]34)[C@@]2(C)CCC1=O` gave an IC50 of 2000 nM. This lies in the single-digit micromolar range.

With `C[C@]12CC[C@H]3[C@@H](CC(=O)C4=CCCC[C@@]43C=O)[C@@H]1CCC2=O`, the concentration for half-maximal inhibition (IC50) is 5790 nM.

With `CC(=O)O[C@@H]1C(=O)C2=CC(=O)CC[C@]2(C)[C@H]2CC[C@]3(C)C(=O)CC[C@H]3[C@H]12`, the 50% inhibitory concentration (IC50) was determined as 5300 nM.

Compound `C[C@]12C=C(Br)C(=O)C=C1CC[C@@H]1[C@@H]2CC[C@]2(C)C(=O)CC[C@@H]12` gave an IC50 of 1840 nM.

As to `C[C@]12CC[C@H]3[C@@H](CC=C4C(=O)CCC[C@@]43C)[C@@H]1CC[C@@H]2O`, half-maximal inhibition (IC50) required 10000 nM. Against the preceding compound, the IC50 is about 5.4-fold higher.

Take `C[C@]12CC[C@H]3[C@@H](CCC4=CCCC[C@@]43C=O)[C@@H]1C[C@@H](O)C2=O`: the half-maximal inhibitory concentration (IC50) is 28000 nM.

The compound `CC(C)[C@@H]1C[C@@H]2[C@H](CC[C@]3(C)C(=O)CC[C@@H]23)[C@@]2(C)CCC(=O)C=C12` had a concentration for half-maximal inhibition (IC50) of 1100 nM.

Consider `C[C@]12CC[C@H]3[C@@H](CCC4=CC(=O)CC[C@@]43CI)[C@@H]1CCC2=O`, for which half-maximal inhibition (IC50) required 4100 nM.

As to `C[C@@H]1C[C@@H]2[C@H](CC[C@]3(C)C(=O)CC[C@@H]23)[C@@]2(C)CCC(=O)C=C12`, half-maximal inhibition (IC50) required 719 nM. Against the preceding compound, the IC50 is about 5.7-fold lower.

`CC[C@]12C=CC(=O)C=C1CC[C@H]1[C@@H]3CCC(=O)[C@@]3(C)CC[C@@H]12` gave an IC50 of 160 nM.

In the case of `C[C@]12CCC(=O)C=C1C[C@@H](CCc1ccccc1)[C@@H]1[C@@H]2CC[C@]2(C)C(=O)CC[C@@H]12`, half-maximal inhibition (IC50) required 138 nM.

On to `C[C@]12CC[C@H]3[C@@H](CC(=O)C4=CCCC[C@@]43C)[C@@H]1CC[C@@H]2O`, for which the IC50 is 1800 nM. This IC50 is about 13-fold higher than that of the compound before.

`CC(=O)OC1[C@@H]2[C@H](CC[C@]3(C)C(=O)CC[C@@H]23)[C@@]2(C)CCC(=O)C=C2[C@@H]1N=[N+]=[N-]` (stereo partly specified): 400 nM corresponded to half-maximal inhibition (IC50).

`CC[C@@H]1C[C@@H]2[C@H](CC[C@]3(C)C(=O)CC[C@@H]23)[C@@]2(C)C=CC(=O)C=C12` showed an IC50 of 54 nM. This IC50 lies about 7.4-fold lower than the previous one.

The compound `C[C@]12CC[C@H]3[C@@H](CCC4=CC(=O)CC[C@@]43C=O)[C@@H]1CCC2=O` gave a 50% inhibitory concentration (IC50) of 1200 nM.

The compound `CCCCC[C@@H]1C[C@@H]2[C@H](CC[C@]3(C)C(=O)CC[C@@H]23)[C@@]2(C)CCCC=C12` had an IC50 of 12000 nM. Compared with the last compound, the IC50 is about 10-fold higher.

Compound `CC1C[C@H]2[C@@H]3CC[C@H](O)[C@@]3(C)CC[C@@H]2[C@@]2(C)C=CC(=O)C=C12` (stereo partly specified) had an IC50 of 67 nM.

With `CC[C@H]1C[C@@H]2[C@H](CC[C@]3(C)C(=O)CC[C@@H]23)[C@@]2(C)CCCC=C12`, inhibition was half-maximal at 110 nM (IC50).

As for `C[C@]12CC[C@H]3[C@@H](CCC4C(=O)[C@H](O)CC[C@@]43C)[C@@H]1CC[C@@H]2O` (stereo partly specified), the IC50 is 3900 nM.

Turning to `C[C@]12CC[C@H]3[C@@H](CC=C4C(=O)CCC[C@@]43C=O)[C@@H]1CCC2=O`, it took 27000 nM to reach half-maximal inhibition (IC50).

On to `CCCCC1C[C@H]2[C@@H]3CC[C@H](O)[C@@]3(C)CC[C@@H]2[C@@]2(C)CCC(=O)C=C12` (stereo partly specified), for which the concentration for half-maximal inhibition (IC50) is 48 nM.

In turn, `CCO[C@H]1C[C@@H]2[C@H](CC[C@]3(C)C(=O)CC[C@@H]23)c2ccc(O)cc21` had a half-inhibitory concentration (IC50) of 74000 nM.

Consider `CC(C)[C@H]1C[C@@H]2[C@H](CC[C@]3(C)C(=O)CC[C@@H]23)[C@@]2(C)CCC(=O)C=C12`, for which the IC50 was 1400 nM.

`C[C@]12CCC(=O)C=C1C[C@H](Cc1ccccc1)[C@@H]1[C@@H]2CC[C@]2(C)C(=O)CC[C@@H]12` had a half-inhibitory concentration (IC50) of 44.5 nM.

`CC(=O)OC1CC[C@H]2[C@@H]3CCC4=CCCC[C@]4(CO)[C@H]3CC[C@]12C` (stereo partly specified) gave a concentration for half-maximal inhibition (IC50) of 100000 nM.

In turn, `C[C@]12CCC(=O)C=C1[C@H](Br)C[C@@H]1[C@@H]2CC[C@]2(C)C(=O)CC[C@@H]12` showed a half-maximal inhibitory concentration (IC50) of 800 nM.

Compound `C[C@]12C=CC(=O)C=C1[C@@H](CCCCc1ccccc1)C[C@@H]1[C@@H]2CC[C@]2(C)C(=O)CC[C@@H]12` had an IC50 of 230 nM.

In turn, `CCCCC[C@H]1C[C@@H]2[C@H](CC[C@]3(C)C(=O)CC[C@@H]23)[C@@]2(C)C=CC(=O)C=C12` gave a concentration for half-maximal inhibition (IC50) of 140 nM.

`CCCC[C@H]1C[C@@H]2[C@H](CC[C@]3(C)[C@@H](O)CC[C@@H]23)c2ccc(O)cc21` gave a half-inhibitory concentration (IC50) of 28000 nM.

In turn, `C#C[C@@H]1C[C@@H]2[C@H](CC[C@]3(C)C(=O)CC[C@@H]23)[C@@]2(C)CCC(=O)C=C12` had an IC50 of 1900 nM.

`CC(=O)O[C@H]1C2=CC(=O)CC[C@]2(C)[C@H]2CC[C@]3(C)C(=O)CC[C@H]3[C@@H]2C1N=[N+]=[N-]` (stereo partly specified): half-maximal inhibition (IC50) required 23100 nM.

Compound `CO[C@H]1C[C@@H]2[C@H](CC[C@]3(C)C(=O)CC[C@@H]23)c2ccc(O)cc21` showed an IC50 of 59000 nM.

`CC(=O)OC1=C2CC[C@@H]3[C@H](CC[C@]4(C)C(=O)CC[C@@H]34)[C@@]2(C)CCC1=O` showed an IC50 of 1500 nM.

The compound `CCC1=C[C@@H]2[C@H](CC[C@]3(C)C(=O)CC[C@@H]23)[C@@]2(C)C=CC(=O)C=C12` had an IC50 of 42 nM.

In turn, `C[C@]12CC[C@H]3[C@@H](CCC4=CC(=O)CC[C@@]43C(F)F)[C@@H]1CC[C@@H]2O` gave an IC50 of 420 nM.

As for `C[C@]12C=CC(=O)C(Sc3ccccc3)=C1C=C[C@@H]1[C@@H]2CC[C@]2(C)C(=O)CC[C@@H]12`, inhibition was half-maximal at 65 nM (IC50).

Compound `C[C@]12CC[C@@H]3c4ccc(O)c(NC(=O)c5ccccn5)c4CC[C@H]3[C@@H]1CCC2=O` showed an IC50 of 203000 nM.

`C[C@]12C=CC(=O)C=C1[C@H](c1ccccc1)C[C@@H]1[C@@H]2CC[C@]2(C)C(=O)CC[C@@H]12` showed a concentration for half-maximal inhibition (IC50) of 530 nM. Compared with the last compound, the IC50 is about 380-fold lower.

Compound `CCCC[C@@H]1C[C@@H]2[C@H](CC[C@]3(C)C(=O)CC[C@@H]23)[C@@]2(C)C=CC(=O)C=C12` gave a 50% inhibitory concentration (IC50) of 180 nM.

In the case of `C[C@]12C=CC(=O)C=C1C(CCCc1ccccc1)=C[C@@H]1[C@@H]2CC[C@]2(C)C(=O)CC[C@@H]12`, it took 350 nM to reach half-maximal inhibition (IC50).

Consider `COc1ccc(CS[C@@H]2CC3=CC(=O)CC[C@]3(C)[C@H]3CC[C@]4(C)C(=O)CC[C@H]4[C@H]23)cc1`, for which 31 nM corresponded to half-maximal inhibition (IC50).

The compound `C[C@@H]1C[C@@H]2[C@H](CC[C@]3(C)C(O)CC[C@@H]23)[C@@]2(C)CCCC=C12` (stereo partly specified) had a 50% inhibitory concentration (IC50) of 3700 nM. Against the preceding compound, the IC50 is about 120-fold higher.

The compound `C[C@]12CCC(=O)C=C1C(N=[N+]=[N-])=C[C@@H]1[C@@H]2CC[C@]2(C)C(=O)CC[C@@H]12` gave a concentration for half-maximal inhibition (IC50) of 4550 nM.

On to `C[C@]12CCC(=O)c3[nH]nc(c31)C[C@@H]1[C@@H]2CC[C@]2(C)C(=O)CC[C@@H]12`, for which the IC50 was 236 nM.

`C[C@]12CC[C@@H]3c4cc([N+](=O)[O-])c(O)cc4CC[C@H]3[C@@H]1CCC2=O`: the midpoint of inhibition, the IC50, lay at 15000 nM.

The compound `CCCCCC1=C[C@@H]2[C@H](CC[C@]3(C)C(=O)CC[C@@H]23)[C@@]2(C)C=CC(=O)C=C12` gave an IC50 of 140 nM.

With `C[C@]12CCC(=O)C=C1C[C@@H](SCc1ccccc1)[C@@H]1[C@@H]2CC[C@]2(C)C(=O)CC[C@@H]12`, half-maximal inhibition (IC50) was put at 69 nM.

The compound `C[C@]12CC[C@H]3[C@@H]([C@@H]4C[C@@H]4C4=CCCC[C@@]43C)[C@@H]1CC[C@@H]2O` showed a half-inhibitory concentration (IC50) of 2700 nM.

Consider `C[C@]12CCC(=O)C(F)=C1CC[C@@H]1[C@@H]2CC[C@]2(C)C(=O)CC[C@@H]12`, for which the IC50 was 480 nM.

Consider `CCCC[C@@H]1C[C@@H]2[C@H](CC[C@]3(C)C(=O)CC[C@@H]23)[C@@]2(C)CCC(=O)C=C12`, for which 511 nM corresponded to half-maximal inhibition (IC50).

`C[C@]12CCC(=O)C=C1[C@H](N=[N+]=[N-])C(O)[C@@H]1[C@@H]2CC[C@]2(C)C(=O)CC[C@@H]12` (stereo partly specified) gave a concentration for half-maximal inhibition (IC50) of 47000 nM.

`CC[C@]12CCC(=O)C=C1C(=O)C[C@@H]1[C@@H]2CC[C@]2(C)C(=O)CC[C@@H]12` gave an IC50 of 2200 nM.

As for `COC1=C2C(=O)C[C@@H]3[C@H](CC[C@]4(C)C(=O)CC[C@@H]34)[C@@]2(C)CC(C)(C)C1=O`, half-maximal inhibition (IC50) was put at 1900 nM.

Regarding `C[C@@H]1C[C@@H]2[C@H](CC[C@]3(C)[C@@H](O)CC[C@@H]23)c2ccc(O)cc21`, the IC50 was 61000 nM.

Take `C[C@H]1C[C@@H]2[C@H](CC[C@]3(C)C(O)CC[C@@H]23)[C@@]2(C)CCCC=C12` (stereo partly specified): 260 nM corresponded to half-maximal inhibition (IC50).

`C#C[C@]12CCC(=O)C=C1CC[C@@H]1[C@@H]2CC[C@]2(C)C(=O)CC[C@@H]12` had a half-inhibitory concentration (IC50) of 1000 nM.

Consider `C[C@]12CCC(=O)C=C1C[C@H](CCc1ccccc1)[C@@H]1[C@@H]2CC[C@]2(C)C(=O)CC[C@@H]12`, for which it took 40.2 nM to reach half-maximal inhibition (IC50).

`C[C@]12CCC(=O)C(Sc3ccccc3)=C1C=C[C@@H]1[C@@H]2CC[C@]2(C)C(=O)CC[C@@H]12` gave an IC50 of 25 nM. This IC50 is about 1.6-fold lower than that of the compound before.

As for `C[C@]12C[C@@H](CCc3ccc(C(F)(F)F)cc3)C(=O)C=C1CC[C@@H]1[C@@H]2CC[C@]2(C)C(=O)CC[C@@H]12`, the IC50 was 46600 nM. This IC50 lies about 1900-fold higher than the previous one.

As for `CC(=O)O[C@H]1C[C@@H]2[C@H](CC[C@]3(C)C(=O)CC[C@@H]23)[C@@]2(C)CCCC=C12`, half-maximal inhibition (IC50) required 190 nM.

For `C[C@]12C=CC(=O)C=C1C(CCCCc1ccccc1)=C[C@@H]1[C@@H]2CC[C@]2(C)C(=O)CC[C@@H]12`, the 50% inhibitory concentration (IC50) was 150 nM.
